Structures are written as SMILES. Calls of active or inactive are those of the source.

Data on four molecules can be found in ChEMBL document CHEMBL1201862, “PubChem BioAssay data set” (2004).

The target of test [1] is T1, Alkaline phosphatase, tissue-nonspecific isozyme (Homo sapiens, UniProt P05186).
T1 sequence (P05186 whole entry): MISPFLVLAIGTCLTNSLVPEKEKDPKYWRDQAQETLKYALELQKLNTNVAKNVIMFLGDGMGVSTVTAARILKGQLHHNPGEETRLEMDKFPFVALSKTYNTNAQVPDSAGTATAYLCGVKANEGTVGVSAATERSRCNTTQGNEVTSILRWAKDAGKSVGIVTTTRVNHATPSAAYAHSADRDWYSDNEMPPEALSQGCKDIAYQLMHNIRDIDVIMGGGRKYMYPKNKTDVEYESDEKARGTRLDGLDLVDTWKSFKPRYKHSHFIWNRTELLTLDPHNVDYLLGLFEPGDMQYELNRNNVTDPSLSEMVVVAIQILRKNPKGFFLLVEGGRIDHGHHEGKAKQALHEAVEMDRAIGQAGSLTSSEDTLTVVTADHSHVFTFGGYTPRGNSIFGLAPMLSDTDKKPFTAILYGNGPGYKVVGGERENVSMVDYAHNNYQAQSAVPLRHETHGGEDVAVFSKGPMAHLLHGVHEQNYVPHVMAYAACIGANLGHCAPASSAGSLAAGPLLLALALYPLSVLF
The test can be described thus: potency against alkaline phosphatase TNAP – biochemical, luminescent, dose response, SAR follow-up (AID 1056).

The target of test [2] is Alkaline phosphatase, placental type (Homo sapiens, UniProt P05187). The test can be described thus: human placental alkaline phosphatase inhibition – biochemical, luminescence, confirmation (AID 1512). The format is functional.
In a further test the target is T2, Leucine aminopeptidase (Plasmodium falciparum 3D7, UniProt Q8IL11).
T2 sequence (Q8IL11 whole entry): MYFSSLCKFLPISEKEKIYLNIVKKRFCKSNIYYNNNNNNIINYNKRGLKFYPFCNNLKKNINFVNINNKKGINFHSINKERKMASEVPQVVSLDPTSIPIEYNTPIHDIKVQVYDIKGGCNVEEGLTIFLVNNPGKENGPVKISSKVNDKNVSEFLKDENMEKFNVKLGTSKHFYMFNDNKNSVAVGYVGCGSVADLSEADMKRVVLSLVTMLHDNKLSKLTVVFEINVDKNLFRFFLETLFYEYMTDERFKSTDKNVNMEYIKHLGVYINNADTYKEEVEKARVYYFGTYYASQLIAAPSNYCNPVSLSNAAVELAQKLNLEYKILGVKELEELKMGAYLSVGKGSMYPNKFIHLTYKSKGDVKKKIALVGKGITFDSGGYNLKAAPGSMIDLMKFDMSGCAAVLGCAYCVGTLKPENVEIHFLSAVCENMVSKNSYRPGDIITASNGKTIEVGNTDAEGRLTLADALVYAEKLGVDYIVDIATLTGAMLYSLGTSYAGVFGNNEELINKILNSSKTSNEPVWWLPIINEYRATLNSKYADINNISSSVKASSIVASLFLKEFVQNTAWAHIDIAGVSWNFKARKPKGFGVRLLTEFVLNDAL
The test can be described thus: P. falciparum M17LAP inhibitors, primary screen, biochemical, fluorogenic H-Leu-NHMec substrate, 1536-well (AID 1619). The test is classed as functional.

Another test relates to Streptococcus. In words: GAS UMAA2166 growth inhibition – luminescence, BacTiterGlo, counter-screen for streptokinase expression inhibitor project, dose response (AID 1915).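 Further: potency for reduction of bacterial viability or growth.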 The test is classed as functional, organism-based.
The target in another test is T3, Streptokinase A (Streptococcus pyogenes serotype M1, UniProt P10520).
T3 sequence (P10520 whole entry): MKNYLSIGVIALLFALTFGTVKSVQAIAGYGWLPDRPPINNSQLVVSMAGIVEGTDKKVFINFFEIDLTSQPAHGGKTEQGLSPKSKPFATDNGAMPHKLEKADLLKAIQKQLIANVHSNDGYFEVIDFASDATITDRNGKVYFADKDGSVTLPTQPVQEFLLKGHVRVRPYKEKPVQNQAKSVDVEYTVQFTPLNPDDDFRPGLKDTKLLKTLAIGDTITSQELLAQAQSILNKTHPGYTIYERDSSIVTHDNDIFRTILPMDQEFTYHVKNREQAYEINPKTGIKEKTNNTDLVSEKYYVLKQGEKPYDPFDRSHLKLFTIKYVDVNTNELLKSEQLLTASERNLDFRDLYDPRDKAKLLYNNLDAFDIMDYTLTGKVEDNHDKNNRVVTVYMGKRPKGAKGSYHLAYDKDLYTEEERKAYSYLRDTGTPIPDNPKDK
In words: viability-normalized secreted streptokinase activity reduction – plasminogen activation absorbance, OD405, dose response (AID 1914).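 Further: secreted streptokinase activity via plasminogen activation per viability signal from cell pellet.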 The format is functional, Streptococcus pyogenes M1 GAS.

The next test deals with T4, Hexokinase HKDC1 (Homo sapiens, UniProt Q2TB90).
T4 sequence (Q2TB90 whole entry): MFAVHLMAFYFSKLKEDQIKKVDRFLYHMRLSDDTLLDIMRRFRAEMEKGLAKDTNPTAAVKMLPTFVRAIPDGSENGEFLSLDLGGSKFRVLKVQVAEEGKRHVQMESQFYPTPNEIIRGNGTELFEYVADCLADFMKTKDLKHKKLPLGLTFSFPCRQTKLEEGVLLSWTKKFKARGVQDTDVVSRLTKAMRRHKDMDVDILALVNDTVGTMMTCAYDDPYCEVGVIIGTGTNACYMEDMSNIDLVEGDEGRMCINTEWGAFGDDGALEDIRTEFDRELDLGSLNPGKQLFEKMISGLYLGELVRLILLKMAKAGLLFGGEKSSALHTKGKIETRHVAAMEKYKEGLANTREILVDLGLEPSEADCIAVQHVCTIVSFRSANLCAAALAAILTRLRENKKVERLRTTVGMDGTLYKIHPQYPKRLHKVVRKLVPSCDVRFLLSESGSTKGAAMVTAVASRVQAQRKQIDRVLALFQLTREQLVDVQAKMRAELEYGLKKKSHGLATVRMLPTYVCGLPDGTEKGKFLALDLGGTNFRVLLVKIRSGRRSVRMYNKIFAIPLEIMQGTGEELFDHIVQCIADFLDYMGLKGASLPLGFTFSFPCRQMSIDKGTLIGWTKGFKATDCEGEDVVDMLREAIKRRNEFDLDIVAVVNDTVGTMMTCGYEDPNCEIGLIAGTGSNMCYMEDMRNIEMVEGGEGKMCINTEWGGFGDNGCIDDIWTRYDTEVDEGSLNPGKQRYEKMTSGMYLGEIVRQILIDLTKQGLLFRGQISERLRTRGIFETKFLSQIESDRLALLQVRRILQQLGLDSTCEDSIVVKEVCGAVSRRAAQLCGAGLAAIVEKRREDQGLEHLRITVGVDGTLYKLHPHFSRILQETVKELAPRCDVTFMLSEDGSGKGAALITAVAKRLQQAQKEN
In words: activation of HKDC1 glucose phosphorylation – biochemical, W721R variant, dose response (AID 504730). The test is classed as functional.

A further test has as its system INS1. The test can be described thus: INS-1E survival protection against cytokine death – cell-based, luminescence, retest, dose response (AID 449756).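 Further: cell death triggered by IL-1 beta plus TNF-alpha plus IFN-gamma mixture; protective hits raise ATP signal compared with cytokine alone wells.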 The format is functional. Conditions: Rattus norvegicus.
Test [3] is described as follows: non-specific 3'UTR reporter inhibition in Clone20-Shn3RL – cell-based, Renilla luciferase, cherry-picked, counter-screen for Shn3 inhibitor project, dose response (AID 624133). The format is functional.
Test [4] has as its system Streptococcus sp. 'group A'. The test can be described thus: Streptococcus pyogenes SK(-)GAS viability under kanamycin – luminescence, BacTiterGlo, confirmation, counter-screen for streptokinase expression inhibitor project, dose response (AID 1900). The test is classed as functional, organism-based.
Test [5] can be described thus: loss of viability in HepG2 cells – cell-based, CellTiter-Glo, cherry-picked, cytotoxicity control for Shn3 inhibitor project, dose response (AID 624134). The test is classed as functional.
The target of another test is T5, Hexokinase-1 (Homo sapiens, UniProt P19367).
T5 sequence (P19367 whole entry): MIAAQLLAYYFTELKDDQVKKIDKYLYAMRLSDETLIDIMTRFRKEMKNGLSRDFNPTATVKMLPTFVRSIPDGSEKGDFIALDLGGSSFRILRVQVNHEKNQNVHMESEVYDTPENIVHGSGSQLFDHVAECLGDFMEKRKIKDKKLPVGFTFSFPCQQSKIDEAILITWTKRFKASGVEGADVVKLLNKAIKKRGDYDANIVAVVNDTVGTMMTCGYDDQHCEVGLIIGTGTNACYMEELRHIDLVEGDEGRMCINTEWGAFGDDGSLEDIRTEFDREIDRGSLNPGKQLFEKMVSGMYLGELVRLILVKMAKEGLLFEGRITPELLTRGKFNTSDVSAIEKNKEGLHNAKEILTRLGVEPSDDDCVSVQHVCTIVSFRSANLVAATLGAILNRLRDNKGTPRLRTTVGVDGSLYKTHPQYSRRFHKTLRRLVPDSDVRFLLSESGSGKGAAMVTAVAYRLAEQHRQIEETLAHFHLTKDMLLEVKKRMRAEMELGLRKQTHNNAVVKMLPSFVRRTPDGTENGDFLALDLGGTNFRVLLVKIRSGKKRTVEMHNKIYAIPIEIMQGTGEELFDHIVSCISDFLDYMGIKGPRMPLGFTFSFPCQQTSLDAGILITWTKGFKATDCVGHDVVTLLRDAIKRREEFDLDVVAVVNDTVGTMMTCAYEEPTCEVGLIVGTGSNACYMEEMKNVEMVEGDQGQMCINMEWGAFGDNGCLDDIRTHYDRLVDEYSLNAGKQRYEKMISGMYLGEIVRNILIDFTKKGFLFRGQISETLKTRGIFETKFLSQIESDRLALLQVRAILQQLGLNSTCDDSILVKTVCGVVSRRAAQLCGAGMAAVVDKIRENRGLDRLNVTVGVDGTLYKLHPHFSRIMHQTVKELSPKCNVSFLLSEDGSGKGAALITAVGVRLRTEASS
In words: HK1 enzyme activation by HKDC1 hits – biochemical, selectivity assay for HKDC1 activator project, dose response (AID 504762). The test is classed as functional.

Test [6] addresses Signal transducer and activator of transcription 1-alpha/beta (Homo sapiens, UniProt P42224). In words: STAT3 blockade with qPCR and toxicity readouts – cell-based, STAT1 panel, cytotoxicity, late-stage follow-up, panel member STAT1 Inhibition (AID 2078).
Test [7] has as its target Signal transducer and activator of transcription 3 (Homo sapiens, UniProt P40763). The test can be described thus: STAT3 blockade with qPCR and toxicity readouts – cell-based, STAT1 panel, cytotoxicity, late-stage follow-up, panel member STAT3 Inhibition (AID 2078).
In test [8] the target is T6, Low molecular weight phosphotyrosine protein phosphatase (Homo sapiens, UniProt P24666).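 Further: Dose-response confirmation assay measuring inhibition of LMPTP enzyme activity by fluorescence intensity read-out.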
T6 sequence (P24666 whole entry): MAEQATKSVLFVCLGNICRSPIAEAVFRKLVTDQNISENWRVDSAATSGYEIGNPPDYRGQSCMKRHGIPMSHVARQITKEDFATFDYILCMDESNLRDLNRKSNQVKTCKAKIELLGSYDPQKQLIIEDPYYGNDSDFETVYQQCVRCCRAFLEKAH
The test is classed as functional. To be noted: read-out: IC50_Mean.

The target in test [9] is Epstein-Barr nuclear antigen 1 (Epstein-Barr virus (strain B95-8) (HHV-4) (Human herpesvirus 4), UniProt P03211). The test can be described thus: inhibition of EBV nuclear antigen 1 DNA binding – biochemical, fluorescence polarization, 1536-well, dose response (AID 2381).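 Further: fluorescence polarization of a Cy5 DNA probe bound by EBNA-1 protein.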 The arrangement: species or system human gammaherpesvirus 4.
Test [10] has as its target DNA (cytosine-5)-methyltransferase 1 (Homo sapiens, UniProt P26358). In words: inhibition of DNA methylation by DNMT1 – biochemical, fluorescent molecular beacon, confirmation (AID 602386). The test is classed as functional.
In test [11] the target is T7, Voltage-gated N-type calcium channel alpha-1B subunit/Amyloid beta A4 precursor protein-binding family A member 1 (Homo sapiens, UniProt Q00975+Q02410). The test is classed as protein assay.
The target in test [12] is Lytic switch protein BZLF1 (Epstein-Barr virus (strain B95-8) (HHV-4) (Human herpesvirus 4), UniProt P03206). In words: inhibition of BZLF1 ZTA DNA binding – biochemical, fluorescence polarization, Epstein-Barr virus, 1536-well, counter-screen for EBNA-1 inhibitor project, dose response (AID 2377).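 Further: fluorescence polarization of Cy5-labelled ZRE DNA probe bound by purified Zta.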 The arrangement: species or system human gammaherpesvirus 4.
The target of test [13] is T7, Voltage-gated N-type calcium channel alpha-1B subunit/Amyloid beta A4 precursor protein-binding family A member 1. The test is classed as protein assay. The source holds these as a separate data set.
Test [14] addresses T8, SUMO-activating enzyme (Homo sapiens, UniProt Q9UBT2). The test can be described thus: blockers of UBC9-mediated SUMO conjugation – biochemical, AlphaScreen, SUMOylation inhibitor project, confirmation (AID 2018). The test is classed as functional.
Test [15] concerns the target T8, SUMO-activating enzyme. In words: blockers of SAE1/SAE2–UBC9 SUMO transfer – biochemical, HTRF, uHTS, primary screen (AID 2006). The test is classed as protein-complex assay.

T7 sequence (Q00975 whole entry): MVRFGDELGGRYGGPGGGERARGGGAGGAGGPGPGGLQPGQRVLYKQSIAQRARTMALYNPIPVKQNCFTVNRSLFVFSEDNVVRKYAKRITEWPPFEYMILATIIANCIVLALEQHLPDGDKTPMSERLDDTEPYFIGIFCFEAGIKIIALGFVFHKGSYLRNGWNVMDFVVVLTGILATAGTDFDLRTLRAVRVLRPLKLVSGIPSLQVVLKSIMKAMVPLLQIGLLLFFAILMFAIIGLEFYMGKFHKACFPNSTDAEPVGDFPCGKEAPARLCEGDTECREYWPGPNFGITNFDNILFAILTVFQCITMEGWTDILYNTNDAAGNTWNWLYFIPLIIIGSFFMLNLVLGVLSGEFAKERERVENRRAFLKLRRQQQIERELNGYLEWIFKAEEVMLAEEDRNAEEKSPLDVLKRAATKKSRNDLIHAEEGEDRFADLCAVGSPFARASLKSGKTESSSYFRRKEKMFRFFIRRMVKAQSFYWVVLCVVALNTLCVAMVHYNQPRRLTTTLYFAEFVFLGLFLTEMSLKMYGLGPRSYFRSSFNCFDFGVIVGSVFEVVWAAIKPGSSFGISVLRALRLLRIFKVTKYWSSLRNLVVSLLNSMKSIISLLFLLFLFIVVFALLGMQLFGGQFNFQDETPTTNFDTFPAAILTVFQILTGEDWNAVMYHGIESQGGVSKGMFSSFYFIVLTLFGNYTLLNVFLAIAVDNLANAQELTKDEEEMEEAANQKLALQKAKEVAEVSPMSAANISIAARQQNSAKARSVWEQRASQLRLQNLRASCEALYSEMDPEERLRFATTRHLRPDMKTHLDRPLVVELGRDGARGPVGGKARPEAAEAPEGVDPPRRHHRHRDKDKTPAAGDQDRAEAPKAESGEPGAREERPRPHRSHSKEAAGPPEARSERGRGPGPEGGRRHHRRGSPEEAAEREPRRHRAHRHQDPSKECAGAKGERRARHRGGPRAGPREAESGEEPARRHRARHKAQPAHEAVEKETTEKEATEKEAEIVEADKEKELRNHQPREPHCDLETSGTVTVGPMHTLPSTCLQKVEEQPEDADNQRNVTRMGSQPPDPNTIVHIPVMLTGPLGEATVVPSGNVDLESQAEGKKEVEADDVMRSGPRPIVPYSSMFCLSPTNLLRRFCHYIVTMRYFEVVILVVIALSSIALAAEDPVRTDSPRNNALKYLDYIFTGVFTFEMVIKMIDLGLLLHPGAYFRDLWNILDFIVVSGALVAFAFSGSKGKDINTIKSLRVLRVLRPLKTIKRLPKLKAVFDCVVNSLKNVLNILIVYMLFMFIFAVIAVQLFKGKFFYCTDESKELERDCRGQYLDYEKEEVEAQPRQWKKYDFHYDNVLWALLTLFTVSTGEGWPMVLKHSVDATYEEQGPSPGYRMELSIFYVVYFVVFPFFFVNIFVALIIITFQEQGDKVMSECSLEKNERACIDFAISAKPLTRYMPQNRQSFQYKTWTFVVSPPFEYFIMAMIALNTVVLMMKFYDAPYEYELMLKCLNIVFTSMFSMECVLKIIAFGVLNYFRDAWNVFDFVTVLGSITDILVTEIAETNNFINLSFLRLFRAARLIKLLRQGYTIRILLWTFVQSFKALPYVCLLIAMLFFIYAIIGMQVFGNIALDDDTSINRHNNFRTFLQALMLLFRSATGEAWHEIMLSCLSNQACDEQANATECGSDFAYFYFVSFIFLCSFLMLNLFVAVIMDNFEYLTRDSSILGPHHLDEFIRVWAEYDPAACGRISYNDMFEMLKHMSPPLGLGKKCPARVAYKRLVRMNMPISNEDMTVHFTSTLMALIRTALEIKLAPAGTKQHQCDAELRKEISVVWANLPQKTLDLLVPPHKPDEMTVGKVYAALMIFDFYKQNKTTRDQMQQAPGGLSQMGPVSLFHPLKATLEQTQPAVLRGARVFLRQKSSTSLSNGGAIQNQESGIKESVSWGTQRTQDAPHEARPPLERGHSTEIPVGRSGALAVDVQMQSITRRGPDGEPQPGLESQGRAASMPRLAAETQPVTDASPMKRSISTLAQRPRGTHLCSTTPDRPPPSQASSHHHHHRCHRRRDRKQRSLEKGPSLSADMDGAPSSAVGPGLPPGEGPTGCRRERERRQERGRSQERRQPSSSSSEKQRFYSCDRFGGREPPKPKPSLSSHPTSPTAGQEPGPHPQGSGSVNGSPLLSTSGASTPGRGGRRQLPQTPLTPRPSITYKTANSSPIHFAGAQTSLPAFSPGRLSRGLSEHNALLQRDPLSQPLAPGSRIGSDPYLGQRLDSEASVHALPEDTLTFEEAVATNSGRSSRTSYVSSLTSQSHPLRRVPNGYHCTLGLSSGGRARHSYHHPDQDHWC
T7 sequence (Q02410 whole entry): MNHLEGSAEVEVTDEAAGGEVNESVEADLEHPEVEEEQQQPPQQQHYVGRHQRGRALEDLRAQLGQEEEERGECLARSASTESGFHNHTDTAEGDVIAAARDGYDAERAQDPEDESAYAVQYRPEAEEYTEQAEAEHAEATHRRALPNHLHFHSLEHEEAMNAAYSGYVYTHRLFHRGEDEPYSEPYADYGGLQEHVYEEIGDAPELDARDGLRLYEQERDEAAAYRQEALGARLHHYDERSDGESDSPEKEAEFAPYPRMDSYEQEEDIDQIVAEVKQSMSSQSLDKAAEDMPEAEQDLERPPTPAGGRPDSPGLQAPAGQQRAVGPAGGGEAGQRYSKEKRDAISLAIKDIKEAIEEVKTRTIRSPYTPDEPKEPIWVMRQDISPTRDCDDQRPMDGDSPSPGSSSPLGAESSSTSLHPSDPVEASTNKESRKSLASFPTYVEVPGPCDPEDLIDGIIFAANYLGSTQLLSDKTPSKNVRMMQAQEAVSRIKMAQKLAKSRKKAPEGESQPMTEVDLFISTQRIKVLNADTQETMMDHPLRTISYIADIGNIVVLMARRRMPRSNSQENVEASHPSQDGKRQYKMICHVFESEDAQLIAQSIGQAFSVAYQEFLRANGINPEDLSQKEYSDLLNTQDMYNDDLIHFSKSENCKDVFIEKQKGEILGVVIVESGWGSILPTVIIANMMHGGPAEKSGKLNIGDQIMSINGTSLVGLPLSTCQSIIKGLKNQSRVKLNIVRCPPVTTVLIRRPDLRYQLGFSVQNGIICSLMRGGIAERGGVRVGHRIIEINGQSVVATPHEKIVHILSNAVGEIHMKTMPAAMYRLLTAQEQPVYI
T8 sequence (Q9UBE0 whole entry): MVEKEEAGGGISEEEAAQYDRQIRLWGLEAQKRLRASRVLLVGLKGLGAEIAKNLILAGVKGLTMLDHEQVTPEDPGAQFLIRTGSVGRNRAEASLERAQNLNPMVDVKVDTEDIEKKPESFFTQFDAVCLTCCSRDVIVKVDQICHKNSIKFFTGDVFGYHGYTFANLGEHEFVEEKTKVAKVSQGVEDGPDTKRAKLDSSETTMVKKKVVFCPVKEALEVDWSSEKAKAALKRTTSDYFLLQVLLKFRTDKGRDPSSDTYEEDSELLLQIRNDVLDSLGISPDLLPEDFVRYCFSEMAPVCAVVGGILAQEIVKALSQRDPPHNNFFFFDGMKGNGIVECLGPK
T8 sequence (Q9UBT2 whole entry): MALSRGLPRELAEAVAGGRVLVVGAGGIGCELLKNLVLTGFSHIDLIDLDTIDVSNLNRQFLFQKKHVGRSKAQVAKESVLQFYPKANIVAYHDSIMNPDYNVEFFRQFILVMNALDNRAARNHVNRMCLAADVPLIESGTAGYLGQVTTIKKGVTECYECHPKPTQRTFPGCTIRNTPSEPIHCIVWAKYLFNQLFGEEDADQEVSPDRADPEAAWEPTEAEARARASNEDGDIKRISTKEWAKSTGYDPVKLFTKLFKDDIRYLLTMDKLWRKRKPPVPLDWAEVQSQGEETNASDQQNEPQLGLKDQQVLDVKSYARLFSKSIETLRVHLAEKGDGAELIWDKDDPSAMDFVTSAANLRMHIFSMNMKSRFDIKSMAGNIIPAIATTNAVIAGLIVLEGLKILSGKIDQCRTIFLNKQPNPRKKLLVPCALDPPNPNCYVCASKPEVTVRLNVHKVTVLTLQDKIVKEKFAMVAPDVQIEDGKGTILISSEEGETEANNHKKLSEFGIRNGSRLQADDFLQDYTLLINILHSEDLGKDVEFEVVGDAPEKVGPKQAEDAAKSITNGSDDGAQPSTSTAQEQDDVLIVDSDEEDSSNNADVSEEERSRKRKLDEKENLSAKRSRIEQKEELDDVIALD
Signal transducer and activator of transcription 1-alpha/beta, sequence (P42224 whole entry): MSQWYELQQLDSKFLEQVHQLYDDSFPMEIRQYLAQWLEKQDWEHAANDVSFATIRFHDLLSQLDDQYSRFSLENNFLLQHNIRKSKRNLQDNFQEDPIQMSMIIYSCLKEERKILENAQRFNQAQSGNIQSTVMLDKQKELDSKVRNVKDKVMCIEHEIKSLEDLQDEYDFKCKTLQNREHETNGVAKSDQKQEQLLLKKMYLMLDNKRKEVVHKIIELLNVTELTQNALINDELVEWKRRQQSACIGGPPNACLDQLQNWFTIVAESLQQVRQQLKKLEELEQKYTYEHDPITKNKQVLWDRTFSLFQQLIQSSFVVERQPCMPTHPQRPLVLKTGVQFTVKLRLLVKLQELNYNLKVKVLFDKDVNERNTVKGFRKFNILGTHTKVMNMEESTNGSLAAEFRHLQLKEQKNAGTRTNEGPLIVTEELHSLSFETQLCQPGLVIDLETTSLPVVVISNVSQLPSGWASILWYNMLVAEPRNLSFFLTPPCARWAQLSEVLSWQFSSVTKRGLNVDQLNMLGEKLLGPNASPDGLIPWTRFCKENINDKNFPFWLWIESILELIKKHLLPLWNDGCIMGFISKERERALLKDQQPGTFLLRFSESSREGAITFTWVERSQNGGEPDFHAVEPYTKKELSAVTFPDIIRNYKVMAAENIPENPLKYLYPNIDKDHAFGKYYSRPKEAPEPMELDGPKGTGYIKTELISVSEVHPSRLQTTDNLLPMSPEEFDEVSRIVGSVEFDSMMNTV

Take `CCn1c(SCC(=O)c2ccc(O)c(O)c2)nnc1-c1ccccc1`: the IC50 in test [1] was 35.8 µM (active); in test [2], 4.32 µM (active); on Leucine aminopeptidase it was 13.3 µM (active).
Consider `Fc1ccccc1NC1=NN=C(c2ccccc2)CS1`, for which the EC50 in the test on Streptococcus is 9 µM (active); at Streptokinase A, > 150 µM (not active); on Hexokinase HKDC1, 20.2 µM (inactive); in test [4], 4.31 µM (active); at Hexokinase-1, 29.7 µM (inactive). Also, the AC50 in the test with INS1 was 7.51 µM (active); in test [3], 11.1 µM (active); in test [5], 33.5 µM (active).
Take `c1ccc(CC2CCN(c3ncnc4sc5c(c34)CCCC5)CC2)cc1`: the IC50 in test [6] and in [7] was > 55.7 µM (inactive) throughout.
Turning to `O=C(COc1ccc(/C=N/NC(=O)c2ccc(O)cc2)cc1)Nc1ccc([N+](=O)[O-])cc1`, the IC50 in test [8] was 9.58 µM (active); in test [9], 14.5 µM (not active); in test [10], 8.43 µM (active); in test [11], > 50 µM (inactive); in test [12] it was > 111 µM (not active); in test [13], 9.71 µM (active). Further, the IC50 on SUMO-activating enzyme [14] was 9.81 µM (active); on SUMO-activating enzyme [15] it was 8.49 µM (active).
